Results reported in ChEMBL document CHEMBL1629484, “1,2-diamino-ethane-substituted-6,7,8,9-tetrahydro-5H-pyrimido[4,5-d]azepines as TRPV1 antagonists with improved properties” (Bioorg Med Chem Lett, 2010).
≈ marks a conversion by molar mass, not a printed value. Calls of active or inactive are those of the source. The calls are words filed in the database; no cut-off is given here.

Key:
[1] = Aqueous equilibrium solubility of compound in simulated intestinal fluid at pH 6.8; assay type: physicochemical
[2] = biological target: T1, Transient receptor potential cation channel subfamily V member 1 (Rattus norvegicus, UniProt O35433); assay: Antagonist activity at rat TRPV1 expressed in HEK293 cells assessed as inhibition of capsaicin-induced intracellular Ca2+ level by FLIPR assay; assay type: functional, cell-based
T1 sequence (O35433 whole entry): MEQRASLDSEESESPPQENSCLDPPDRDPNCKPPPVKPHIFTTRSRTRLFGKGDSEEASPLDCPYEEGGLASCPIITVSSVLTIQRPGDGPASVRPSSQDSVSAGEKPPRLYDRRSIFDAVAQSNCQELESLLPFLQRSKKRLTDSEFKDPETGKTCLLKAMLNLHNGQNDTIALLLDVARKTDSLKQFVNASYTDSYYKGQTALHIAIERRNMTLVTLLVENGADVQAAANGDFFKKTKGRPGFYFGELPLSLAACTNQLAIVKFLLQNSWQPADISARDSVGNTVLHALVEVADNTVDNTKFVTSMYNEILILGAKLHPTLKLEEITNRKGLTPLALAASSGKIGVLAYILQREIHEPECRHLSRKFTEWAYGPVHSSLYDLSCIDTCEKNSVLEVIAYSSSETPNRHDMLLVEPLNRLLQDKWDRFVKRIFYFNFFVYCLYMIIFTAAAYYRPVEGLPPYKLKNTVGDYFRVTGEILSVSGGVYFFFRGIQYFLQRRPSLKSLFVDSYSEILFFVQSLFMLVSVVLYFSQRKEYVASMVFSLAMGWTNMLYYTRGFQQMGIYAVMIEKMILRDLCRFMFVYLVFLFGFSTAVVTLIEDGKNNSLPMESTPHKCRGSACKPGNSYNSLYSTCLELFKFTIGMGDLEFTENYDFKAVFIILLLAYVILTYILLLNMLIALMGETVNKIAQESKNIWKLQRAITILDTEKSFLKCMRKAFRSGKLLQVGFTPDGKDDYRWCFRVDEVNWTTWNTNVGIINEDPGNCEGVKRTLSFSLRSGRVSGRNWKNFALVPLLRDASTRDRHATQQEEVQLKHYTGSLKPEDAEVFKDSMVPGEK

[3] = Aqueous equilibrium solubility of compound in phosphate buffer at pH 2; assay type: physicochemical
[4] = biological target: T2, Transient receptor potential cation channel subfamily V member 1 (Homo sapiens, UniProt Q8NER1); assay: Antagonist activity at human TRPV1 expressed in HEK293 cells assessed as inhibition of capsaicin-induced intracellular Ca2+ level by FLIPR assay; assay type: functional, cell-based
T2 sequence (Q8NER1 whole entry): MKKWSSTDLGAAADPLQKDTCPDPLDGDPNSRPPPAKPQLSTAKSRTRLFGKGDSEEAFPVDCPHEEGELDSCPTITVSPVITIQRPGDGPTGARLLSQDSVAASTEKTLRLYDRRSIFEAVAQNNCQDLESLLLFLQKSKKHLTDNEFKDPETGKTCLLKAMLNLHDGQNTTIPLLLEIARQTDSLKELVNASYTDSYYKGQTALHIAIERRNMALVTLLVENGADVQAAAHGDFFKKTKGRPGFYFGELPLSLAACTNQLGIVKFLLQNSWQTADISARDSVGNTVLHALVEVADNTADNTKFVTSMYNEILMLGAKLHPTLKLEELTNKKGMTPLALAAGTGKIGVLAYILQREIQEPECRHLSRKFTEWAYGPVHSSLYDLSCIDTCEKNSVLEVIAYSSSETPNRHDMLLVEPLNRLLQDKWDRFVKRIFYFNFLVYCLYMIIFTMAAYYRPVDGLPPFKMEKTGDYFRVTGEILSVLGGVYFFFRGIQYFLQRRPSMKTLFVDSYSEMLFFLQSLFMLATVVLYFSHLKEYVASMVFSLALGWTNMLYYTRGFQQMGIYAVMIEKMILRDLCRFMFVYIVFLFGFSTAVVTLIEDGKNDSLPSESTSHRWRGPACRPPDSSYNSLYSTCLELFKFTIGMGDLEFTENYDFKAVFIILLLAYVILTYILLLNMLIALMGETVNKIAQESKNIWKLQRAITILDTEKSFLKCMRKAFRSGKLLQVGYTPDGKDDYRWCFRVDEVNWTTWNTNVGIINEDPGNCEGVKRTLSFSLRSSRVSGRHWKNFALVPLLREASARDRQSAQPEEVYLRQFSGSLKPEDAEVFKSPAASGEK

[5] = Clearance in fasted Sprague-Dawley rat at 0.5 mg/kg, iv and 2 mg/kg, po; assay type: ADME, organism-based; settings: in vivo
[6] = Half life in fasted Sprague-Dawley rat at 0.5 mg/kg, iv and 2 mg/kg, po; assay type: ADME, organism-based; settings: in vivo
[7] = Volume of distribution at steady state in fasted Sprague-Dawley rat at 0.5 mg/kg, iv and 2 mg/kg, po; assay type: ADME, organism-based; settings: in vivo, read-out: Vdss
[8] = test system: Rattus norvegicus; assay: Analgesic activity against carrageenan-induced thermal hyperalgesia in rat at 5 mg/kg, po administered 1 hr before carrageenan challenge; assay type: functional, organism-based; design: dose 5 mg/kg
[9] = Cmax in fasted Sprague-Dawley rat at 2 mg/kg, po; assay type: ADME, organism-based; design: dose 2 mg/kg, route oral; settings: in vivo
[10] = test system: Rattus norvegicus; assay: Analgesic activity against carrageenan-induced thermal hyperalgesia in rat assessed as maximal possible effect at 30 mg/kg, po administered 3 hrs post-carrageenan challenge; assay type: functional
[11] = Tmax in fasted Sprague-Dawley rat at 2 mg/kg, po; assay type: ADME, organism-based; design: dose 2 mg/kg, route oral; settings: in vivo
[12] = Terminal plasma concentration in rat at 30 mg/kg, po administered 5 hrs post-carrageenan challenge; assay type: ADME, organism-based; design: dose 30 mg/kg, route oral; settings: read-out: Cp(T)
[13] = biological target: T1, Transient receptor potential cation channel subfamily V member 1; assay: Displacement of [3H]RTX from rat TRPV1 expressed in HEK cells; assay type: cell-based, HEK293
[14] = Terminal plasma concentration in rat at 5 mg/kg, po administered 5 hrs post-carrageenan challenge; assay type: ADME, organism-based; design: dose 5 mg/kg, route oral; settings: read-out: Cp(T)
[15] = biological target: T1, Transient receptor potential cation channel subfamily V member 1; assay: Inhibition of rat TRPV1 expressed in HEK cells; assay type: cell-based, HEK293
[16] = AUC (infinity) in fasted Sprague-Dawley rat at 2 mg/kg, po; assay type: ADME, organism-based; design: time infinity, dose 2 mg/kg, route oral; settings: plasma
[17] = biological target: T2, Transient receptor potential cation channel subfamily V member 1; assay: Inhibition of human TRPV1 expressed in HEK cells; assay type: cell-based, HEK293
[18] = Oral bioavailability in fasted Sprague-Dawley rat at 2 mg/kg; assay type: ADME, organism-based; settings: in vivo
[19] = Clearance in rat; assay type: ADME, organism-based; settings: in vivo

solubility thermodynamic [1] [µg/mL]	IC50 [2] [nM]	solubility thermodynamic [3] [µg/mL]	IC50 [4] [nM]	SMILES	further results
> 283	> 5000	> 283	3330	CN(CC1CCCCN1C)c1nc2c(c(Nc3ccc(C(F)(F)F)cc3)n1)CCN(c1ncccc1C(F)(F)F)CC2 (stereo not drawn)	
203 (≈ 368 µM)	> 5000	> 235	> 5000	FC(F)(F)c1ccc(Nc2nc(NC3CCCNC3)nc3c2CCN(c2ncccc2C(F)(F)F)CC3)cc1 (stereo not drawn)	
3 (≈ 4.51 µM)	230	3 (≈ 4.51 µM)	250	CC(C)(C)OC(=O)N1CCCCC1CNc1nc2c(c(Nc3ccc(C(F)(F)F)cc3)n1)CCN(c1ncccc1C(F)(F)F)CC2 (stereo not drawn)	
211 (≈ 373 µM)	1540	> 241	3600	CN(c1nc2c(c(Nc3ccc(C(F)(F)F)cc3)n1)CCN(c1ncccc1C(F)(F)F)CC2)C1CCCNC1 (stereo not drawn)	
11 (≈ 18.2 µM)	123	221 (≈ 365 µM)	15	FC(F)(F)c1ccc(Nc2nc(N3CCN(C4CCCC4)CC3)nc3c2CCN(c2ncccc2C(F)(F)F)CC3)cc1	
> 232	> 5000	> 232	> 5000	CN1CCCC(N(C)c2nc3c(c(Nc4ccc(C(F)(F)F)cc4)n2)CCN(c2ncccc2C(F)(F)F)CC3)C1 (stereo not drawn)	
57 (≈ 101 µM)	1040	> 226	243	CN(C)[C@@H]1CCN(c2nc3c(c(Nc4ccc(C(F)(F)F)cc4)n2)CCN(c2ncccc2C(F)(F)F)CC3)C1	
9 (≈ 15.6 µM)	45	230 (≈ 398 µM)	11	FC(F)(F)c1ccc(Nc2nc(N3CCN(C4CC4)CC3)nc3c2CCN(c2ncccc2C(F)(F)F)CC3)cc1	clearance [5]: 21.7 mL/min/kg; half-life [6]: 1.6 h; Vd [7]: 1 L/kg
233 (≈ 422 µM)	> 5000	> 220	2790	CNC1CCN(c2nc3c(c(Nc4ccc(C(F)(F)F)cc4)n2)CCN(c2ncccc2C(F)(F)F)CC3)C1 (stereo not drawn)	
254 (≈ 438 µM)	2280	> 277	1760	CN1CCCCC1CNc1nc2c(c(Nc3ccc(C(F)(F)F)cc3)n1)CCN(c1ncccc1C(F)(F)F)CC2 (stereo not drawn)	
237 (≈ 419 µM)	> 5000	> 272	100	FC(F)(F)c1ccc(Nc2nc(NCC3CCCCN3)nc3c2CCN(c2ncccc2C(F)(F)F)CC3)cc1 (stereo not drawn)	
> 243	2600	> 243	2000	CN(C)CCN1CCN(c2nc3c(c(Nc4ccc(C(F)(F)F)cc4)n2)CCN(c2ncccc2C(F)(F)F)CC3)CC1	
4 (≈ 6.01 µM)	97	1 (≈ 1.5 µM)	53	CN(c1nc2c(c(Nc3ccc(C(F)(F)F)cc3)n1)CCN(c1ncccc1C(F)(F)F)CC2)C1CCCN(C(=O)OC(C)(C)C)C1 (stereo not drawn)	
158 (≈ 294 µM)	> 5000	215 (≈ 400 µM)		FC(F)(F)c1ccc(Nc2nc(N3CCNCC3)nc3c2CCN(c2ncccc2C(F)(F)F)CC3)cc1	
2 (≈ 3.37 µM)	460	21 (≈ 35.4 µM)	62	CC(=O)N(C)C1CCN(c2nc3c(c(Nc4ccc(C(F)(F)F)cc4)n2)CCN(c2ncccc2C(F)(F)F)CC3)C1 (stereo not drawn)	
2 (≈ 3.38 µM)	161	> 237	24	FC(F)(F)c1ccc(Nc2nc(N3CCN(C4CCC4)CC3)nc3c2CCN(c2ncccc2C(F)(F)F)CC3)cc1	

solubility thermodynamic [1] [µg/mL]	IC50 [2] [nM]	solubility thermodynamic [3] [µg/mL]	IC50 [4] [nM]	SMILES	further results
2 (≈ 3.45 µM)	386	> 232		CC(C)N1CCN(c2nc3c(c(Nc4ccc(C(F)(F)F)cc4)n2)CCN(c2ncccc2C(F)(F)F)CC3)CC1	clearance [5]: 80 mL/min/kg; half-life [6]: 1.5 h; Vd [7]: 5.1 L/kg
> 215	> 5000	> 215	3700	NC1CCN(c2nc3c(c(Nc4ccc(C(F)(F)F)cc4)n2)CCN(c2ncccc2C(F)(F)F)CC3)C1 (stereo not drawn)	
226 (≈ 400 µM)	> 5000	204 (≈ 361 µM)	3080	CN1CCCC(Nc2nc3c(c(Nc4ccc(C(F)(F)F)cc4)n2)CCN(c2ncccc2C(F)(F)F)CC3)C1 (stereo not drawn)	
6 (≈ 10.6 µM)	506	> 226	132	CCN1CCN(c2nc3c(c(Nc4ccc(C(F)(F)F)cc4)n2)CCN(c2ncccc2C(F)(F)F)CC3)CC1	
1 (≈ 1.79 µM)	1340	224 (≈ 400 µM)	476	FC(F)(F)c1ccc(Nc2nc(NCc3ccccn3)nc3c2CCN(c2ncccc2C(F)(F)F)CC3)cc1	
193 (≈ 350 µM)	506	> 221		CN1CCN(c2nc3c(c(Nc4ccc(C(F)(F)F)cc4)n2)CCN(c2ncccc2C(F)(F)F)CC3)CC1	
11 (≈ 18.5 µM)	89	> 237	11	CC(C)CN1CCN(c2nc3c(c(Nc4ccc(C(F)(F)F)cc4)n2)CCN(c2ncccc2C(F)(F)F)CC3)CC1	clearance [5]: 11.7 mL/min/kg; half-life [6]: 1.8 h; Vd [7]: 0.5 L/kg; Activity [8]: Active; Cmax [9]: 300 nM; Activity [10]: 100%; Tmax [11]: 2.3 h; concentration at 5 h [12]: 1050 nM; IC50 [13]: 330 nM; concentration at 5 h [14]: 277 nM; IC50 [15]: 63 nM; AUC(0-inf) [16]: 598 ng·h/mL; IC50 [17]: 67 nM; bioavailability [18]: 21%
				FC(F)(F)c1ccc(Nc2nc(N3CCOCC3)nc3c2CCN(c2ncccc2C(F)(F)F)CC3)cc1	clearance [19]: 51.7 mL/min/kg
109 (≈ 179 µM)	185	243 (≈ 400 µM)	41	CCC(CC)N1CCN(c2nc3c(c(Nc4ccc(C(F)(F)F)cc4)n2)CCN(c2ncccc2C(F)(F)F)CC3)CC1	
14 (≈ 21.5 µM)	239	1 (≈ 1.53 µM)	140	CC(C)(C)OC(=O)N1CCCC(Nc2nc3c(c(Nc4ccc(C(F)(F)F)cc4)n2)CCN(c2ncccc2C(F)(F)F)CC3)C1 (stereo not drawn)	
19 (≈ 32.8 µM)	410	202 (≈ 349 µM)	150	CC(=O)NC1CCN(c2nc3c(c(Nc4ccc(C(F)(F)F)cc4)n2)CCN(c2ncccc2C(F)(F)F)CC3)C1 (stereo not drawn)	
6 (≈ 10.1 µM)	207	> 238	65	COCCN1CCN(c2nc3c(c(Nc4ccc(C(F)(F)F)cc4)n2)CCN(c2ncccc2C(F)(F)F)CC3)CC1	
57 (≈ 101 µM)	586	> 226	185	CN(C)[C@H]1CCN(c2nc3c(c(Nc4ccc(C(F)(F)F)cc4)n2)CCN(c2ncccc2C(F)(F)F)CC3)C1	
4 (≈ 6.88 µM)	1160	> 233	498	OCCN1CCN(c2nc3c(c(Nc4ccc(C(F)(F)F)cc4)n2)CCN(c2ncccc2C(F)(F)F)CC3)CC1	
210 (≈ 379 µM)	4450	> 221	2670	CN(C)CCN(C)c1nc2c(c(Nc3ccc(C(F)(F)F)cc3)n1)CCN(c1ncccc1C(F)(F)F)CC2	
